Test results taken from the supplement of paper PMC11616607.

Key:
Assay in all cases: drug sensitivity score (DSS) from 5-point dose-response viability curve (DSS (area-under-curve based score)); higher = more sensitive (stronger growth inhibition or killing); extreme values may be limits of the assay
Conditions in all cases: exposure time: 72 h; concentration range: 5 concentrations over 10,000-fold range
[1] = tested on: CAOV3
Procedure, shortened: (§1)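 For the drug sensitivity score, obtained per cell line and drug in Breeze software, larger values mean greater sensitivity. No response corresponds to a score of zero. Ovarian cancer and normal ovarian cells were seeded at 1,500 per well into 384-well plates already holding acoustically dispensed drugs (Echo 550, DMSO or water, five concentrations over a 10,000-fold range) and incubated 3 days at 37°C, 5% CO2. CellTiter-Glo luminescence on a PHERAstar FS gave the viability readout.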

[2] = tested on: COV318
Procedure, shortened: as §1

[3] = tested on: COV362
Procedure, shortened: as §1

[4] = tested on: HOSE1C
Procedure, shortened: as §1

[5] = tested on: HOSE2C
Procedure, shortened: as §1

[6] = tested on: JHOS2
Procedure, shortened: as §1

[7] = tested on: Kuramochi
Procedure, shortened: as §1

[8] = tested on: OV90
Procedure, shortened: as §1

[9] = tested on: OVCAR4
Procedure, shortened: as §1

[10] = tested on: OVCAR5
Procedure, shortened: as §1

[11] = tested on: OVCAR8
Procedure, shortened: as §1

[12] = tested on: Ovsaho
Procedure, shortened: as §1

Row | Compound | drug sensitivity score [1] | drug sensitivity score [2] | drug sensitivity score [3] | drug sensitivity score [4] | drug sensitivity score [5] | drug sensitivity score [6] | drug sensitivity score [7] | drug sensitivity score [8] | drug sensitivity score [9] | drug sensitivity score [10] | drug sensitivity score [11] | drug sensitivity score [12]
1 | CCC(C)n1ncn(-c2ccc(N3CCN(c4ccc(OCC5COC(Cn6cncn6)(c6ccc(Cl)cc6Cl)O5)cc4)CC3)cc2)c1=O (configuration not stated) [Itraconazole] | 0 | 0.9 | 0.6 | 0 | 0 | 0.2 | 1.1 | 4.1 | 2.1 | 5.9 | 1.9 | 0.2
2 | N#Cc1ccnc(N2C(=O)CC[C@H]2C(=O)N(c2cncc(F)c2)[C@H](C(=O)NC2CC(F)(F)C2)c2ccccc2Cl)c1 [Ivosidenib] | 0 | 0 | 0 | 0 | 0 | 0 | 0 | 0.3 | 0.1 | 0.6 | 0 | 0
3 | C/C(=C\c1csc(C)n1)[C@@H]1C[C@@H]2O[C@]2(C)CCC[C@H](C)[C@H](O)[C@@H](C)C(=O)C(C)(C)[C@@H](O)CC(=O)N1 [Ixabepilone] | 4.6 | 2.9 | 1.3 | 1.6 | 2 | 2.7 | 2.6 | 2.4 | 2.1 | 4.5 | 5.2 | 2
4 | CC(C)C[C@H](NC(=O)CNC(=O)c1cc(Cl)ccc1Cl)B(O)O [Ixazomib] | 11.6 | 16.4 | 10.5 | 7.4 | 7.8 | 10.6 | 2.7 | 5.5 | 6.5 | 10.4 | 9 | 7
5 | Nc1cc(COc2c(Cl)cc(C[C@H](N)C(=O)O)cc2Cl)c2oc(-c3ccccc3)nc2c1 [JPH203] | 0 | 0 | 0 | 0 | 0 | 0 | 0 | 0 | 0.2 | 7.5 | 0 | 0
6 | CC(C)NC(=O)COc1cccc(-c2nc(Nc3ccc4[nH]ncc4c3)c3ccccc3n2)c1 [KD025] | 0.4 | 0 | 0.5 | 0 | 0 | 1.2 | 3.8 | 8.7 | 3.6 | 2 | 8.2 | 1.9
7 | CS(=O)(=O)CCNCc1ccc(-c2ccc3ncnc(Nc4ccc(OCc5cccc(F)c5)c(Cl)c4)c3c2)o1 [Lapatinib] | 2.4 | 0 | 0 | 0 | 0 | 0 | 0 | 0 | 0 | 0.7 | 0 | 0
8 | O=C(Nc1cnn2ccc(N3CCC[C@@H]3c3cc(F)ccc3F)nc12)N1CC[C@H](O)C1 [Larotrectinib] | 0 | 0 | 0 | 0 | 0 | 0 | 0 | 0 | 0 | 0 | 0 | 0
9 | Oc1ccc2c(c1)CC[C@H](c1ccccc1)[C@@H]2c1ccc(OCCN2CCCC2)cc1 [Lasofoxifene] | 0 | 0 | 0 | 0 | 0 | 0 | 0.3 | 0 | 0 | 0 | 0 | 0
10 | Nc1cccc2c1CN(C1CCC(=O)NC1=O)C2=O (configuration not stated) [Lenalidomide] | 0 | 0 | 0 | 0 | 0 | 0.1 | 0.2 | 0 | 0 | 0 | 0 | 0
11 | COc1cc2nccc(Oc3ccc(NC(=O)NC4CC4)c(Cl)c3)c2cc1C(N)=O [Lenvatinib] | 0 | 0.9 | 0 | 0.4 | 2.9 | 0.1 | 0 | 0.1 | 0.6 | 0 | 0 | 0.1
12 | N#Cc1ccc(C(c2ccc(C#N)cc2)n2cncn2)cc1 [Letrozole] | 0 | 0 | 0 | 0 | 0 | 0 | 0 | 0 | 0 | 0 | 0 | 0
13 | Cc1ccc(F)c(NC(=O)Nc2ccc(-c3cccc4[nH]nc(N)c34)cc2)c1 [Linifanib] | 0 | 0.2 | 0 | 0 | 0 | 0 | 0 | 0 | 0 | 0 | 0 | 0
14 | C[C@]1(O)C[C@@H](c2nc(-c3ccc4ccc(-c5ccccc5)nc4c3)c3c(N)nccn32)C1 [Linsitinib] | 1.4 | 0 | 0 | 0.7 | 2 | 0 | 0 | 0.9 | 0 | 2.7 | 0.3 | 0
15 | CCNCCS(=O)(=O)NC[C@@]1(c2ccccc2)SC(NC(=O)C(C)(C)C)=NN1C(=O)C(C)(C)C [Litronesib] | 23.2 | 3.4 | 1.1 | 25 | 16.7 | 6.1 | 7.5 | 11.6 | 4.9 | 19 | 18.4 | 7.8
16 | Nc1nc(OCc2cc(Br)cs2)c2[nH]cnc2n1 [Lomeguatrib] | 0 | 0.4 | 0 | 0 | 0 | 0 | 0.8 | 0 | 0 | 0 | 0 | 2.5

Row | Compound | drug sensitivity score [1] | drug sensitivity score [2] | drug sensitivity score [3] | drug sensitivity score [4] | drug sensitivity score [5] | drug sensitivity score [6] | drug sensitivity score [7] | drug sensitivity score [8] | drug sensitivity score [9] | drug sensitivity score [10] | drug sensitivity score [11] | drug sensitivity score [12]
17 | NC(=O)N1CCC(CC(=O)N2CCC([C@H]3c4ncc(Br)cc4CCc4cc(Cl)cc(Br)c43)CC2)CC1 [Lonafarnib] | 8.9 | 9.2 | 1.9 | 8 | 8.9 | 8.4 | 11 | 15.8 | 9.1 | 9.1 | 9.4 | 9.8
18 | Cc1c(F)cc(C(=O)NC2CC2)cc1-c1ccc(C(=O)NCC(C)(C)C)cn1 [Losmapimod] | 0 | 0.4 | 0 | 0 | 0 | 0 | 2 | 1.5 | 0 | 0.9 | 0.2 | 0.7
19 | CC[C@H](C)C(=O)O[C@H]1C[C@@H](C)C=C2C=C[C@H](C)[C@H](CC[C@@H]3C[C@@H](O)CC(=O)O3)[C@H]21 [Lovastatin] | 0 | 0 | 0.1 | 7.5 | 7.8 | 0 | 0.3 | 1.3 | 0.2 | 0.8 | 1.7 | 0.7
20 | CNC(=O)c1cccc2cc(Oc3ccnc4cc(OCC5(N)CC5)c(OC)cc34)ccc12 [Lucitanib] | 0 | 2.3 | 0 | 1.5 | 5.9 | 0.4 | 0.1 | 1.1 | 2.4 | 1.6 | 2.3 | 0.8
21 | CCNC(=O)c1noc(-c2cc(C(C)C)c(O)cc2O)c1-c1ccc(CN2CCOCC2)cc1 [Luminespib] | 16.8 | 11.6 | 13.8 | 23.1 | 23 | 18.8 | 14.4 | 17.2 | 9.8 | 15.2 | 18.8 | 8.7
22 | O=C(O)CC[C@H]1CC[C@@](c2cc(F)ccc2F)(S(=O)(=O)c2ccc(Cl)cc2)CC1 [MK-0752] | 0 | 0 | 0 | 0 | 0 | 0 | 0 | 0.2 | 0 | 0.9 | 0 | 0
23 | NC1(c2ccc(-c3nc4ccn5c(=O)[nH]nc5c4cc3-c3ccccc3)cc2)CCC1 [MK-2206] | 1.9 | 1.2 | 0.4 | 2.1 | 2.6 | 0 | 4.4 | 1.9 | 0.4 | 2 | 0 | 2.6
24 | O=C(c1cccc(Cl)c1F)N1CCN(Cc2cccc(Nc3nccs3)n2)CC1 [MK-8745] | 4.9 | 0 | 0 | 2.1 | 3.5 | 0 | 0.4 | 0.5 | 1.1 | 7.8 | 8 | 0.2
25 | Cn1cc(-c2cnn3c(N)c(Br)c([C@@H]4CCCNC4)nc23)cn1 [MK-8776] | 1.3 | 0 | 0 | 5.1 | 5.1 | 0 | 0 | 1.1 | 0 | 0.4 | 1 | 0
26 | Cc1cnc(-c2ccccc2C(C)C)nc1NCc1ccc(-n2ccnn2)cc1 [ML323] | 0.3 | 0.1 | 0 | 0 | 0 | 0 | 0 | 0.1 | 1.5 | 0 | 0 | 0
27 | O=C(CCNC(=O)c1ccc(OC(F)(F)F)cc1)N[C@@H]1CCCc2ccccc21 [ML390] | 0.6 | 4.1 | 0 | 19.8 | 13.4 | 3.4 | 5.3 | 5.6 | 0 | 2 | 4.9 | 4.1
28 | O=C(Nc1cccc(NC(=O)c2cccc(O)c2O)c1)c1cccc(O)c1O [MST-312] | 6.7 | 5.4 | 5.1 | 11.9 | 10.5 | 9.4 | 5.5 | 7.6 | 7.2 | 5 | 13.9 | 9.7
29 | CNC(=O)[C@@H](NC(=O)[C@H](CC(C)C)[C@H](O)C(=O)NO)C(C)(C)C [Marimastat] | 1.3 | 0 | 0 | 0 | 0 | 0 | 0 | 0.1 | 0.1 | 1.6 | 0.1 | 0
30 | Cc1ccc(NC(=O)c2ccc(CN3CCN(C)CC3)cc2)cc1Nc1nc(-c2cccnc2)cs1 [Masitinib] | 0.2 | 1.7 | 1.4 | 1.8 | 1.3 | 1.7 | 3.4 | 5.2 | 2.1 | 4.4 | 4.1 | 0.8
31 | CC(=O)O[C@]1(C(C)=O)CC[C@H]2[C@@H]3C=C(C)C4=CC(=O)CC[C@]4(C)[C@H]3CC[C@@]21C [Megestrol acetate] | 0 | 0 | 0 | 0 | 0 | 0 | 0 | 0 | 0 | 0 | 0.4 | 0
